Consider 121 molecules from a melting point compilation (Tetko et al.).

What is called melting point is the temperature of the solid-liquid transition. Molecule `CS(=O)(=O)c1ccc(Oc2ccc(N)cc2)cc1` displayed a melting point of 152 to 154 °C.
In the case of `Cc1ccc(OCc2nc(C(=O)NC3=NCCS3)cs2)cc1` it was 200 to 202 °C; in that of `CC(N)(C(N)=O)c1cccc(C(F)(F)F)c1` (stereo unspecified), 84 to 86 °C; in that of `CCOC(=O)c1cnn(-c2cccc(N)c2)c1C(F)(F)F`, 87 to 89 °C.
For `O=C1CCCC1c1ccccc1` (stereo unspecified), the melting point was 35 to 37 °C.
In the case of `O=S(=O)(Cl)c1csc(-c2ccc(F)cc2)n1` it was 75 to 77 °C.
In the case of `NC(=O)c1cccc(OCCC(=O)O)c1` it was 196 to 198 °C; in that of `NCCCc1n[nH]c(N)c1-c1nc2ccccc2s1`, 313 to 315 °C; in that of `COc1ccc2nc(C#N)ccc2c1`, 176 to 178 °C.
In the case of `Clc1cc(-c2ncc[nH]2)ccn1` it was 187 to 189 °C; in that of `O=c1[nH]c(-c2cccc(Cl)c2)cs1`, 163 to 165 °C; in that of `NC(CC1C(=O)Nc2ccccc21)=NO` (stereo unspecified), 183 to 185 °C.
With `O=C(O)c1ccc(CCC(F)(F)F)cc1`, the melting point fell in the range of 211 to 213 °C.
`Cc1ccc2c(CC#N)c[nH]c2c1` came in with a melting point of 115 to 117 °C.
Take `Clc1ccc(-n2cccn2)nn1`: the melting point lay in the range of 142 to 144 °C.
Under `Cc1cc(C)c2c(c1)NCCC2` stands 34 to 36 °C.
`CC(C)C(NC(=O)COc1ccccc1)C(=O)O` (stereo unspecified) came in with a melting point of 165 to 167 °C.
In the case of `Cc1nn(CCO)c2nc(C3CC3)cc(C(=O)O)c12` it was 184 to 186 °C.
Turning to `O=C(NCc1ccco1)c1cccc(CCl)c1`, the melting point lay in the range of 74 to 76 °C.
Under `NC1CCN(C(=O)C2CCCCC2)CC1` stands 78 to 80 °C; under `NNc1ccccc1S(=O)(=O)N1CCOCC1`, 141 to 143 °C; under `Cn1cnnc1SCc1ccc(C(=O)O)o1`, 179 to 181 °C.
Under `Cc1ccccc1CNC(=O)CCl` stands 105 to 107 °C.
Under `CC(=O)NCc1ccc(C(=O)CCl)o1` stands 125 to 127 °C.
As to `FC(F)(F)c1ccc(CNc2ccc(Br)cc2)cc1`, the melting point lay within 70 to 72 °C.
Molecule `O=C(O)c1ccc(=O)n(CCOc2ccccc2)n1` had a melting point of 138 to 140 °C.
Under `Cc1ccc(Oc2ncccc2C#N)c(Br)c1` stands 116 to 118 °C; under `O=Cc1cc(Cl)ccc1OCc1cccnc1`, 79 to 81 °C; under `O=C(O)c1nn(Cc2ccccc2)c(=O)c2ccccc12`, 199 to 201 °C.
As to `Cc1ccc(NS(=O)(=O)c2ccsc2C(=O)O)cc1`, the melting point was 192 to 194 °C.
Under `NC(=O)c1ccc(CSc2ncccc2C(=O)O)cc1` stands 291 to 293 °C.
Under `O=C(NCc1ccncc1)c1ccc(O)c(Cl)c1` stands 179 to 181 °C; under `COc1ccc(C2C(C(N)=O)CC(=O)N2C)cc1` (stereo unspecified), 208 to 210 °C; under `CC(C)NC(=O)Nc1ccc(CN)cc1`, 133 to 135 °C.
`Cc1cc(NC(=O)OCC(F)(F)F)n(CCC#N)n1` registered a melting point of 128 to 130 °C.
With `NC(=O)c1ccn(-c2ccc(N)cc2)n1`, the melting point fell in the range of 230 to 232 °C.
`NC(CN1CCCC1=O)c1cccc(C(F)(F)F)c1` (stereo unspecified) returned a melting point of 76 to 78 °C.
Under `Fc1ccc(-c2cncc(Cl)n2)cc1` stands 95 to 97 °C; under `CCC(=O)c1ccc2c(c1)CC(=O)N2C`, 205 to 207 °C.
As to `CNc1ccc([N+](=O)[O-])c2nonc12`, the melting point was in the range of 257 to 259 °C.
In the case of `NNC(=S)NC1CC1` it was 100 to 102 °C; in that of `CC(C)(C)OC(=O)N1CCN(C(N)=O)CC1`, 175 to 177 °C.
Under `ClCc1ccnc(-c2ccc(Br)cc2)n1` stands 126 to 128 °C; under `COC(=O)C(Cc1c[nH]cn1)NC(C)=O` (stereo unspecified), 116 to 118 °C; under `Cc1cc(C)nc(-n2cc(C(=O)O)c(C)n2)n1`, 287 to 289 °C.
In the case of `Oc1ccc2nc[nH]c2c1` it was 215 to 217 °C.
Turning to `N#CCc1csc(-c2ccccc2)n1`, the melting point fell in the range of 57 to 59 °C.
In the case of `CCCCN(c1ccccc1)S(=O)(=O)c1cccc(C(=O)O)c1` it was 161 to 163 °C; in that of `N#Cc1ccc(N=C=S)cc1Cl`, 75 to 77 °C.
In the case of `O=C(O)C1CCCN(C2=NS(=O)(=O)c3ccccc32)C1` (stereo unspecified) it was 205 to 207 °C.
Molecule `NNc1ccc2cccc(O)c2n1` returned a melting point of 156 to 158 °C.
In the case of `O=C(O)c1ccc(NC(=O)c2cccs2)cc1`, the melting point was in the range of 227 to 229 °C.
Under `COc1cc(C=O)c(SC)cc1OC` stands 111 to 113 °C; under `COc1ccc(C(C)=O)c2ccccc12`, 64 to 66 °C; under `COc1cc(C#N)cc(Cl)c1O`, 141 to 143 °C.
For `CCS(=O)(=O)NCCc1ccc(S(N)(=O)=O)s1`, the melting point lay within 121 to 123 °C.
In the case of `Cc1ccc(C(=O)Nc2ccccc2)cc1N` it was 151 to 153 °C; in that of `O=C(O)c1ccc2[nH]c(=O)oc2c1`, 307 to 309 °C.
Turning to `O=C(NC1CC1)C(Cl)c1ccccc1` (stereo unspecified), the melting point is 128 to 130 °C.
Under `Cc1ccsc1C(=O)CC#N` stands 114 to 116 °C; under `O=C(O)C1CCCN(C(=O)Cc2ccc(F)cc2)C1` (stereo unspecified), 122 to 124 °C; under `Fc1cccc(-n2ccnc2)n1`, 87 to 89 °C.
As for `Nc1cnn(-c2nccs2)c1`, the melting point lay in the range of 89 to 91 °C.
Under `CCC(C)C(=O)NN` (stereo unspecified) stands 88 to 90 °C; under `NC(=O)c1ccc2[nH]cc(C3CCNCC3)c2c1`, 149 to 151 °C.
For `CC(C)c1ccc(C2(C(=O)O)CCC2)cc1`, the melting point was 119 to 121 °C.
Under `Cc1cccc(NC(=O)C=NO)c1C` stands 110 to 112 °C.
Under `O=S(=O)(Cl)c1c(Cl)ccnc1Cl` stands 79 to 81 °C; under `Cc1cccc(-n2nnc(C(=O)O)c2C)c1`, 157 to 159 °C.
Take `Cn1ccc(S(=O)(=O)NCC2(N)CCCCC2)c1`: the melting point lay in the range of 94 to 96 °C.
In turn, `Clc1nc(-c2cccnc2)nc2sc3c(c12)CCC3` gave a melting point of 145 to 147 °C.
Under `COC(=O)c1cc(N)cc(S(C)(=O)=O)c1` stands 194 to 196 °C; under `CCCCc1ccc(NC(=S)NN)cc1`, 125 to 127 °C.
Molecule `N#Cc1ccccc1SCC(=O)O` registered a melting point of 143 to 145 °C.
Consider `O=C(Nc1ccc(-c2ccccc2)cc1)OCC(F)(F)F`, for which the melting point is 168 to 170 °C.
In the case of `COc1ccc(CNC(=O)c2c[nH]nc2N)cc1` it was 196 to 198 °C; in that of `N#Cc1nc(Cl)cc(N)c1N`, 249 to 251 °C; in that of `CNC(=O)Cn1nc(N)cc1C`, 115 to 117 °C.
`COc1ccccc1C=NO`: the melting point is 86 to 88 °C.
Under `N#CCc1ccc(Oc2ccc(N)cn2)cc1` stands 67 to 69 °C; under `Fc1cccc(Nc2nnc(S)s2)c1`, 206 to 208 °C; under `CC(C)(C)NC(=O)CCl`, 75 to 77 °C.
Under `NC(=O)N1CC=C(c2c[nH]c3ccccc23)CC1` stands 199 to 201 °C; under `O=C(O)c1ccc(C(F)(F)C(F)(F)F)cc1`, 152 to 154 °C; under `NC(=O)C(F)(F)c1ccccc1`, 116 to 118 °C.
In the case of `Nn1c(SCC(=O)O)nnc1C1CCCCC1` it was 159 to 161 °C.
Consider `COc1ccc2ccc(O)cc2c1`, for which the melting point was 116 to 119 °C.
Molecule `CC(C)C(O)(C(=O)O)c1ccccc1` (stereo unspecified) yielded a melting point of 148 to 150 °C.
Regarding `COC(=O)c1cccc(-c2ncno2)c1`, the melting point is 101 to 103 °C.
On to `Cn1c(CO)nnc1C1CCC1`, for which the melting point fell in the range of 133 to 135 °C.
`Cn1c(S)nnc1Cc1ccccc1` returned a melting point of 158 to 160 °C.
On to `CCOC(=O)c1c(N)sc(C(=O)OC)c1CC(=O)OC`, for which the melting point lay within 168 to 170 °C.
On to `NCCc1nc2ccccc2s1`, for which the melting point was in the range of 47 to 49 °C.
Molecule `O=C(NC=C(Cl)Cl)c1ccc(F)cc1` returned a melting point of 69 to 71 °C.
Under `N#CCN1CCN(Cc2ccccc2)CC1` stands 49 to 51 °C; under `CNc1cc(-c2ccccc2)[nH]n1`, 122 to 124 °C; under `CCOC(=O)CS(=O)(=O)c1ccc(Br)cc1`, 45 to 47 °C.
In the case of `O=c1[nH]cnc2cc(N3CCOCC3)c([N+](=O)[O-])cc12` it was 309 to 311 °C; in that of `O=C(NC=C(Cl)Cl)c1ccc(Br)cc1`, 110 to 112 °C.
On to `CC(=O)c1cc(Br)sc1C`, for which the melting point lay within 41 to 43 °C.
With `Cc1sc2nc(S)n(C(C)C)c(=O)c2c1C`, the melting point was 270 to 272 °C.
Under `CC(C)(C)n1ccnc1S` stands 192 to 194 °C.
In the case of `N#Cc1cccnc1NCc1cccc(C(=O)O)c1` it was 197 to 199 °C; in that of `O=C1OC(=O)c2cc([N+](=O)[O-])cc3cc([N+](=O)[O-])cc1c23`, 216 to 218 °C; in that of `COc1cc(C=O)cc(Cl)c1OC(F)F`, 75 to 77 °C.
In the case of `Cc1cc(C)cc(-n2c(C)cc(C(=O)O)c2C)c1` it was 169 to 171 °C; in that of `COC(=O)NCCC(=O)O`, 75 to 77 °C.
On to `CCOC(=O)c1c[nH]cc(C)c1=O`, for which the melting point lay within 225 to 227 °C.
`Cc1cc(C(=O)O)nn1C(C)C1CC1` (stereo unspecified): the melting point lay in the range of 130 to 132 °C.
Molecule `CCn1nccc1C=CC(=O)O` gave a melting point of 151 to 153 °C.
`N#CC1(N)CCCCC1` returned a melting point of 25 to 27 °C.
Under `CCC(CC)n1ccc(C(=O)O)n1` stands 68 to 70 °C; under `O=[N+]([O-])c1cccc(C(F)F)c1Br`, 29 to 31 °C.
Under `NCc1cc2sccc2s1` stands 58 to 60 °C.
As to `O=C1Nc2c(Br)cc(Cl)cc2C1=O`, the melting point lay within 245 to 247 °C.
Under `CC(C)(C)c1ccc(C(O)CCC(=O)O)cc1` (stereo unspecified) stands 127 to 129 °C; under `O=C(O)Cc1ccc(NS(=O)(=O)c2ccc(Cl)c(Cl)c2)cc1`, 174 to 176 °C; under `O=C(CN1CCNCC1)NC1CC1`, 22 to 24 °C.
In the case of `NC(=O)C1CCC1` it was 151 to 153 °C; in that of `ClCc1nc2cc(Cl)ccc2n1Cc1ccccc1`, 105 to 115 °C; in that of `COC(=O)c1c(C)nn(C)c1Cl`, 36 to 38 °C.
